Measurements as given in patent publication US20100076015A1, “Aminopyridine Derivatives” (VANTIA LIMITED, priority 2008, published 2010).

Target: T1, Human KLK1 (Homo sapiens, UniProt P06870)
T1 construct: purchased Callbiochem (Calbiochem)
Test: Determination of the IC50 for KLK1 (fluorogenic substrate H-DVal-Leu-Arg-AFC)
Assay type: biochemical
Details: 37° C.
How it was run: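 IC50 values reflect residual human KLK1 activity, read as initial rate from optical absorbance change at 410 nm. Incubations ran at 37° C with H-DVal-Leu-Arg-AFC as substrate across a compound concentration series.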

T1 sequence (P06870 25-262): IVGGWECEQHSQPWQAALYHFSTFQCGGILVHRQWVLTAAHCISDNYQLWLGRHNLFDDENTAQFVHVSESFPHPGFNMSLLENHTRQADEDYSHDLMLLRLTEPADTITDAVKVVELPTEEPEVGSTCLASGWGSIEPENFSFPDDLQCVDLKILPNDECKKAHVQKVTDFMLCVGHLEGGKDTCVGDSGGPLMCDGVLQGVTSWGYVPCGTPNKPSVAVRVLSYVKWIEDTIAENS

Structure (SMILES): Cc1cc[nH]c1C(=O)N[C@@H](Cc1ccccc1F)C(=O)NCc1ccc(N)nc1 [Example 265, 3-Methyl-1H-pyrrole-2-carboxylic acid [(S)-1-[(6-amino-pyridin-3-ylmethyl)-carbamoyl]-2-(2-fluoro-phenyl)-ethyl]-amide]
- IC50: 21.6 nM

Structure (SMILES): Cc1cc[nH]c1C(=O)N[C@@H](Cc1cccc(Cl)c1)C(=O)NCc1ccc(N)nc1 [Example 266, 3-Methyl-1H-pyrrole-2-carboxylic acid [(S)-1-[(6-amino-pyridin-3-ylmethyl)-carbamoyl]-2-(3-chloro-phenyl)-ethyl]-amide]
- IC50: 5.7 nM

Structure (SMILES): Cc1cc[nH]c1C(=O)N[C@@H](Cc1ccc(Cl)cc1)C(=O)NCc1ccc(N)nc1 [Example 267, 3-Methyl-1H-pyrrole-2-carboxylic acid [(S)-1-[(6-amino-pyridin-3-ylmethyl)-carbamoyl]-2-(4-chloro-phenyl)-ethyl]-amide]
- IC50: 8.2 nM

Structure (SMILES): Cc1cccc(C[C@H](NC(=O)c2[nH]ccc2C)C(=O)NCc2ccc(N)nc2)c1 [Example 268, 3-Methyl-1H-pyrrole-2-carboxylic acid {(S)-1-[(6-amino-pyridin-3-ylmethyl)-carbamoyl]-2-m-tolyl-ethyl}-amide]
- IC50: 7.7 nM

Structure (SMILES): Cc1cc[nH]c1C(=O)N[C@@H](Cc1cccc(F)c1)C(=O)NCc1ccc(N)nc1 [Example 269, 3-Methyl-1H-pyrrole-2-carboxylic acid [(S)-1-[(6-amino-pyridin-3-ylmethyl)-carbamoyl]-2-(3-fluoro-phenyl)-ethyl]-amide]
- IC50: 26.1 nM

Structure (SMILES): Cc1cc[nH]c1C(=O)N[C@@H](Cc1cc(F)cc(F)c1)C(=O)NCc1ccc(N)nc1 [Example 270, 3-Methyl-1H-pyrrole-2-carboxylic acid [(S)-1-[(6-amino-pyridin-3-ylmethyl)-carbamoyl]-2-(3,5-difluoro-phenyl)-ethyl]-amide]
- IC50: 20.9 nM

Structure (SMILES): Cc1cc[nH]c1C(=O)N[C@@H](Cc1cccc(C(F)(F)F)c1)C(=O)NCc1ccc(N)nc1 [Example 271, 3-Methyl-1H-pyrrole-2-carboxylic acid [(S)-1-[(6-amino-pyridin-3-ylmethyl)-carbamoyl]-2-(3-trifluoromethyl-phenyl)-ethyl]-amide]
- IC50: 3.3 nM

Structure (SMILES): Cc1cc[nH]c1C(=O)N[C@@H](CC1CCCCC1)C(=O)NCc1ccc(N)nc1 [Example 273, 3-Methyl-1H-pyrrole-2-carboxylic acid {(S)-1-[(6-amino-pyridin-3-ylmethyl)-carbamoyl]-2-cyclohexyl-ethyl}-amide]
- IC50: 375 nM

Structure (SMILES): COC(=O)c1ccc(C(=O)N[C@@H](Cc2cccc(C(F)(F)F)c2)C(=O)NCc2ccc(N)nc2)[nH]1 [Example 274, 5-[(S)-1-[(6-Amino-pyridin-3-ylmethyl)-carbamoyl]-2-(3-trifluoromethyl-phenyl)-ethylcarbamoyl]-1H-pyrrole-2-carboxylic acid methyl ester]
- IC50: 4.8 nM

Structure (SMILES): Nc1ccc(CNC(=O)[C@H](Cc2cccc(C(F)(F)F)c2)NC(=O)c2ccc(C(=O)O)[nH]2)cn1 [Example 275, 5-[(S)-1-[(6-Amino-pyridin-3-ylmethyl)-carbamoyl]-2-(3-trifluoromethyl-phenyl)-ethylcarbamoyl]-1H-pyrrole-2-carboxylic acid]
- IC50: 147 nM

Structure (SMILES): Cc1cc(C(=O)O)[nH]c1C(=O)N[C@@H](Cc1cccc(C(F)(F)F)c1)C(=O)NCc1ccc(N)nc1 [Example 276, 5-[(S)-1-[(6-Amino-pyridin-3-ylmethyl)-carbamoyl]-2-(3-trifluoromethyl-phenyl)-ethylcarbamoyl]-4-methyl-1H-pyrrole-2-carboxylic acid]
- IC50: 30.5 nM

Structure (SMILES): Cc1cc(C)c(C(=O)N[C@@H](Cc2cccc3ccccc23)C(=O)NCc2ccc(N)nc2C)[nH]1 [Example 278, 3,5-Dimethyl-1H-pyrrole-2-carboxylic acid {(S)-1-[(6-amino-2-methyl-pyridin-3-ylmethyl)-carbamoyl]-2-naphthalen-1-yl-ethyl}-amide]
- IC50: 3.2 nM

Structure (SMILES): Cc1cc(C)c(C(=O)N[C@@H](Cc2cccc(Cl)c2)C(=O)NCc2ccc(N)nc2C)[nH]1 [Example 279, 3,5-Dimethyl-1H-pyrrole-2-carboxylic acid [(S)-1-[(6-amino-2-methyl-pyridin-3-ylmethyl)-carbamoyl]-2-(3-chloro-phenyl)-ethyl]-amide]
- IC50: 4.5 nM

Structure (SMILES): Cc1cc(C)c(C(=O)N[C@@H](Cc2ccc(Cl)c(Cl)c2)C(=O)NCc2ccc(N)nc2C)[nH]1 [Example 280, 3,5-Dimethyl-1H-pyrrole-2-carboxylic acid [(S)-1-[(6-amino-2-methyl-pyridin-3-ylmethyl)-carbamoyl]-2-(3,4-dichloro-phenyl)-ethyl]-amide]
- IC50: 1.9 nM

Structure (SMILES): Cc1cccc(C[C@H](NC(=O)c2[nH]c(C)cc2C)C(=O)NCc2ccc(N)nc2C)c1 [Example 281, 3,5-Dimethyl-1H-pyrrole-2-carboxylic acid {(S)-1-[(6-amino-2-methyl-pyridin-3-ylmethyl)-carbamoyl]-2-m-tolyl-ethyl}-amide]
- IC50: 1.8 nM

Structure (SMILES): Cc1cc(C)c(C(=O)N[C@@H](Cc2ccccc2C(F)(F)F)C(=O)NCc2ccc(N)nc2C)[nH]1 [Example 282, 3,5-Dimethyl-1H-pyrrole-2-carboxylic acid [(S)-1-[(6-amino-2-methyl-pyridin-3-ylmethyl)-carbamoyl]-2-(2-trifluoromethyl-phenyl)-ethyl]-amide]
- IC50: 1.3 nM

Structure (SMILES): Cc1cc(C)c(C(=O)N[C@@H](Cc2c[nH]c3ccccc23)C(=O)NCc2ccc(N)nc2C)[nH]1 [Example 283, 3,5-Dimethyl-1H-pyrrole-2-carboxylic acid [(S)-1-[(6-amino-2-methyl-pyridin-3-ylmethyl)-carbamoyl]-2-(1H-indol-3-yl)-ethyl]-amide]
- IC50: 5.1 nM

Structure (SMILES): Cc1cc(C)c(C(=O)N[C@@H](Cc2ccc(F)c(F)c2)C(=O)NCc2ccc(N)nc2C)[nH]1 [Example 284, 3,5-Dimethyl-1H-pyrrole-2-carboxylic acid [(S)-1-[(6-amino-2-methyl-pyridin-3-ylmethyl)-carbamoyl]-2-(3,4-difluoro-phenyl)-ethyl]-amide]
- IC50: 5.2 nM

Structure (SMILES): Cc1cc(C)c(C(=O)N[C@@H](Cc2ccc(F)cc2)C(=O)NCc2ccc(N)nc2C)[nH]1 [Example 285, 3,5-Dimethyl-1H-pyrrole-2-carboxylic acid [(S)-1-[(6-amino-2-methyl-pyridin-3-ylmethyl)-carbamoyl]-2-(4-fluoro-phenyl)-ethyl]-amide]
- IC50: 6.5 nM

Structure (SMILES): Cc1cc[nH]c1C(=O)N[C@@H](Cc1ccc(F)c(F)c1)C(=O)NCc1ccc(N)nc1C [Example 286, 3-Methyl-1H-pyrrole-2-carboxylic acid [(S)-1-[(6-amino-2-methyl-pyridin-3-ylmethyl)-carbamoyl]-2-(3,4-difluoro-phenyl)-ethyl]-amide]
- IC50: 4.3 nM

Structure (SMILES): Nc1ccc(CNC(=O)[C@H](Cc2ccc(F)cc2)NC(=O)c2ncc[nH]2)cn1 [Example 287, 1H-Imidazole-2-carboxylic acid [(S)-1-[(6-amino-pyridin-3-ylmethyl)-carbamoyl]-2-(4-fluoro-phenyl)-ethyl]-amide]
- IC50: 75.6 nM

Structure (SMILES): Nc1ccc(CNC(=O)[C@H](Cc2cccc(F)c2)NC(=O)c2ncc[nH]2)cn1 [Example 288, 1H-Imidazole-2-carboxylic acid [(S)-1-[(6-amino-pyridin-3-ylmethyl)-carbamoyl]-2-(3-fluoro-phenyl)-ethyl]-amide]
- IC50: 93.2 nM

Structure (SMILES): Nc1ccc(CNC(=O)[C@H](Cc2cccc3ccccc23)NC(=O)c2ncc[nH]2)cn1 [Example 289, 1H-Imidazole-2-carboxylic acid {(S)-1-[(6-amino-pyridin-3-ylmethyl)-carbamoyl]-2-naphthalen-1-yl-ethyl}-amide]
- IC50: 30.5 nM

Structure (SMILES): Cn1ccnc1C(=O)N[C@@H](Cc1ccc(F)cc1)C(=O)NCc1ccc(N)nc1 [Example 290, 1-Methyl-1H-imidazole-2-carboxylic acid [(S)-1-[(6-amino-pyridin-3-ylmethyl)-carbamoyl]-2-(4-fluoro-phenyl)-ethyl]-amide]
- IC50: 626 nM

Structure (SMILES): Cc1cc(C(=O)N[C@@H](Cc2ccc(F)cc2)C(=O)NCc2ccc(N)nc2)n(C)n1 [Example 291, 2,5-Dimethyl-2H-pyrazole-3-carboxylic acid [(S)-1-[(6-amino-pyridin-3-ylmethyl)-carbamoyl]-2-(4-fluoro-phenyl)-ethyl]-amide]
- IC50: 165 nM

Structure (SMILES): Cc1ccc(-c2ccc(C(=O)N[C@@H](Cc3cccc4ccccc34)C(=O)NCc3ccc(N)nc3)[nH]2)cc1 [Example 292, 5-p-Tolyl-1H-pyrrole-2-carboxylic acid {(S)-1-[(6-amino-pyridin-3-ylmethyl)-carbamoyl]-2-naphthalen-1-yl-ethyl}-amide]
- IC50: 31.5 nM

Structure (SMILES): Cc1ccc(-c2ccc(C(=O)N[C@@H](Cc3csc4ccccc34)C(=O)NCc3ccc(N)nc3)[nH]2)cc1 [Example 293, 5-p-Tolyl-1H-pyrrole-2-carboxylic acid {(S)-1-[(6-amino-pyridin-3-ylmethyl)-carbamoyl]-2-benzo[b]thiophen-3-yl-ethyl}-amide]
- IC50: 36.3 nM

Structure (SMILES): Cc1ccc(-c2ccc(C(=O)N[C@@H](Cc3ccc(F)c(F)c3)C(=O)NCc3ccc(N)nc3)[nH]2)cc1 [Example 294, 5-p-Tolyl-1H-pyrrole-2-carboxylic acid [(S)-1-[(6-amino-pyridin-3-ylmethyl)-carbamoyl]-2-(3,4-difluoro-phenyl)-ethyl]-amide]
- IC50: 35.6 nM

Structure (SMILES): Cc1ccc(-c2ccc(C(=O)N[C@@H](Cc3ccccc3Cl)C(=O)NCc3ccc(N)nc3)[nH]2)cc1 [Example 295, 5-p-Tolyl-1H-pyrrole-2-carboxylic acid [(S)-1-[(6-amino-pyridin-3-ylmethyl)-carbamoyl]-2-(2-chloro-phenyl)-ethyl]-amide]
- IC50: 192 nM

Structure (SMILES): Cc1ccc(-c2ccc(C(=O)N[C@@H](Cc3ccc(Cl)c(Cl)c3)C(=O)NCc3ccc(N)nc3)[nH]2)cc1 [Example 296, 5-p-Tolyl-1H-pyrrole-2-carboxylic acid [(S)-1-[(6-amino-pyridin-3-ylmethyl)-carbamoyl]-2-(3,4-dichloro-phenyl)-ethyl]-amide]
- IC50: 40.9 nM

Structure (SMILES): Cc1ccc(-c2ccc(C(=O)N[C@@H](Cc3cccc(Cl)c3)C(=O)NCc3ccc(N)nc3)[nH]2)cc1 [Example 297, 5-p-Tolyl-1H-pyrrole-2-carboxylic acid [(S)-1-[(6-amino-pyridin-3-ylmethyl)-carbamoyl]-2-(3-chloro-phenyl)-ethyl]-amide]
- IC50: 40.1 nM
